From patent US20080260722A1, “Method for High Efficiency Survival/Proliferation of Human Embyonic Stem Cells and Human Embryo Survival in Culture” (The Johns Hopkins University Johns Hopkins Technology …, priority 2004, published 2008)

Columns and labels:
hES cells [1] = experiment: low-density survival assay in NTs without bFGF with pathway inhibitors; assay type: cell-based, human; conditions: single cells at low density in NTs, no bFGF, increasing inhibitor concentrations
Protocol: FIG. 8. PI-3K activity is required for hES cell survival; a. […] NTs have differential effects on AKT and MEK1/2 phosphorylation; hES cells were grown in the presence or absence of NTs (but without bFGF) and cell lysates probed with antibodies to phospho-AKT or phospho-MEK1/2; in the absence of NTs, a weak phospho-AKT band is observed; upon stimulation of hES cells with NTs a stronger band is observed; the intensity of the bands were compared to the total level of AKT and to a loading control (Beta-tubulin); in contrast no change in the level of phospho-MEK1/2 was observed by comparison with the controls.
Human ES cell lines H1 and H9 were cultured as described by Thornson and colleagues^15 in high glucose DMEM supplemented with L-glutanine, non-essential amino acids, serum replacement (Invitrogen) and 4 ng/ml basic Fibroblast growth factor (Invitrogen). Mouse embryo fibroblasts (MEFs) (Specialty Media). were plated at 5-7×10^6 cells/ml. To prepare single cell suspensions of hES cells, the cells were washed twice with PBS, then incubated in 0.05% trypsin/EDTA (InVitrogen) for 5 minutes at 37° C. […] For low-density survival assays, trypsinized cells were counted using a hemocytometer and 500 cells were plated in each well of 96-well plate containing MEFs or coated with Matrigel (BD Biosciences). […] Individual hES cells or hES cell colonies were counted manually on an inverted microscope. […]

hES cells [2] = experiment: low-density survival assay in MEF-CM with TRK inhibitors; assay type: cell-based, human; conditions: increasing inhibitor concentrations, versus DMSO vehicle
Protocol: TRK signaling and survival can be blocked by pharmacological inhibition; TRK inhibitors were added to hES cells plated with MEF-CM in the low-density survival assay; hES cells were exposed to increasing concentrations of a GW441756, K252A, or vehicle (DMSO).
Human ES cell lines H1 and H9 were cultured as described by Thornson and colleagues^15 in high glucose DMEM supplemented with L-glutanine, non-essential amino acids, serum replacement (Invitrogen) and 4 ng/ml basic Fibroblast growth factor (Invitrogen). Mouse embryo fibroblasts (MEFs) (Specialty Media). were plated at 5-7×10^6 cells/ml. To prepare single cell suspensions of hES cells, the cells were washed twice with PBS, then incubated in 0.05% trypsin/EDTA (InVitrogen) for 5 minutes at 37° C. The cells were triturated with a 5-ml pipette until a single cell suspension was obtained. […] For low-density survival assays, trypsinized cells were counted using a hemocytometer and 500 cells were plated in each well of 96-well plate containing MEFs or coated with Matrigel (BD Biosciences). […] Individual hES cells or hES cell colonies were counted manually on an inverted microscope. […]
To test this prediction, hES cell survival was measured using the low density survival assay in the presence or absence of two different TRK inhibitors, GW441756 and K252a^17-19.

TRKs = conditions: cited from earlier work
hES cells [3] = experiment: low-density survival assay with individual neurotrophins on MEFs or Matrigel; assay type: cell-based, human; conditions: 500 cells/well on MEFs or Matrigel, 0.01-100 ng/ml, 4-5 days
From the text: FIG. 4. Individual neurotrophins have dose-dependent effects on hES cell survival; a. Effect of NTs on hES cell survival at low-density on MEFs. hES cells were trypsinized and plated at low density (500 cells per well) on MEFs in 96-well plates in the presence of NT3, BDNF, NT4, NGF or hES medium lacking added growth factor; After 4-5 days, the colonies (comprised of approximately 7-11 cells) were fixed and stained for alkaline phosphatase; b. […] NTs (BDNF, NT4 and NT3) also have statistically significant differences between concentrations of 0.01-100 ng/ml at p<0.05; c. Phase contrast images (at 4×) of morphology of hES cell colonies observed on MEFs or Matrigel™ in the low-density survival assay.
Human ES cell lines H1 and H9 were cultured as described by Thornson and colleagues^15 in high glucose DMEM supplemented with L-glutanine, non-essential amino acids, serum replacement (Invitrogen) and 4 ng/ml basic Fibroblast growth factor (Invitrogen). Mouse embryo fibroblasts (MEFs) (Specialty Media). were plated at 5-7×10^6 cells/ml. To prepare single cell suspensions of hES cells, the cells were washed twice with PBS, then incubated in 0.05% trypsin/EDTA (InVitrogen) for 5 minutes at 37° C. The cells were triturated with a 5-ml pipette until a single cell suspension was obtained. Trypsin inhibitor (InVitrogen) was added and the cell suspension filtered through a […] (Fisher Scientific) to remove clumps and MEFs. For clonal survival assays, single hES cells were diluted to clonal density and plated into a well of a 96-well plate containing MEFs. For low-density survival assays, trypsinized cells were counted using a hemocytometer and 500 cells were plated in each well of 96-well plate containing MEFs or coated with Matrigel (BD Biosciences). To visualize hES colonies, cultures were fixed in 4% para-formaldehyde in PBS for 30 minutes, washed once in PBS, once in distilled H2O, then stained for alkaline phosphatase activity as described previously^25. Individual hES cells or hES cell colonies were counted manually on an inverted microscope. NGF, BDNF, NT3 and NT4 were purchased from Peprotech. The TRK inhibitors GW441756 (Sigma) and K252A (Calbiochem), PI-3K inhibitor, MAPK inhibitors, STAT3 inhibitor and control peptides (all from Calbiochem) were prepared according to the manufacturer's instructions. For the antibody blocking experiments, antibodies to NGF, NT3, NT4 and BDNF as well as a control antibody were obtained from Promega. Antibodies were added to culture medium at a concentration of 20 ug/ml. Following culture, the cultures were fixed and stained for alkaline phosphatase activity as described above. Each experiment consisted of at least four replicates per treatment and each experiment was repeated at least three times. […]

In the case of `COc1cccc(-c2cc(=O)c3ccccc3o2)c1N` [PD98059], the “effect on hES cell survival” value (hES cells [1]) is reported as “no effect on hES cell survival”.

In the case of `Cn1cc(/C=C2\C(=O)Nc3cccnc32)c2ccccc21` [GW441756], the “effect on hES cell survival” value (hES cells [2]) is listed as “statistically-significant and dose-dependent effects on hES cell survival” and the “selectivity for TRKs over many kinases including c-Src, VEGFR2, Raf and CDK1” value (TRKs) is listed as 10-fold, or in some cases 100-fold.

With nerve growth factors [NGF] the “effect on hES cell survival” value (hES cells [3]) was “slight increase in hES cell survival”.

With `COC(=O)[C@@]1(O)C[C@H]2O[C@]1(C)n1c3ccccc3c3c4c(c5c6ccccc6n2c5c31)C(=O)NC4` [K252a] the “effect on hES cell survival” value (hES cells [2]) was “statistically-significant and dose-dependent effects on hES cell survival”.

With `CS/C(N)=C(C#N)/C(C#N)=C(\N)SC` [UO124] the “effect on hES cell survival” value (hES cells [1]) was “no effect on hES cell survival”.

B1: brain derived neurotrophic factor (protein, UniProt P23560 19-247, looked up)
Neurotrophic factor BDNF …: APMKEANIRGQGGLAYPGVRTHGTLESVNGPKAGSRGLTSLADTFEHVIEELLDEDQKVRPNEENNKDADLYTSRVMLSSQVPLEPPLLFLLEEYKNYLDAANMSMRVRRHSDPARRGELSVCDSISEWVTAADKKTAVDMSGGTVTVLEKVPVSKGQLKQYFYETKCNPMGYTKEGCRGIDKRHWNSQCRTTQSYVRALTMDSKKRIGWRFIRIDTSCVCTLTIKRGR
notes: TRK ligand, neurotrophin purchased from Peprotech
With B1 the “effect on hES cell survival” value (hES cells [3]) was “potent, dose dependent effects on hES cell survival”.

B2: neurotrophin 4 (protein, UniProt P34130 81-210, looked up)
Neurotrophin-4: GVSETAPASRRGELAVCDAVSGWVTDRRTAVDLRGREVEVLGEVPAAGGSPLRQYFFETRCKADNAEEGGPGAGGGGCRGVDRRHWVSECKAKQSYVRALTADAQGRVGWRWIRIDTACVCTLLSRTGRA
notes: as for B1
In the case of B2, the “effect on hES cell survival” value (hES cells [3]) is reported as “potent, dose dependent effects on hES cell survival”.

B3: neurotrophin 3 (protein, UniProt P20783 139-257, looked up)
Neurotrophin-3: YAEHKSHRGEYSVCDSESLWVTDKSSAIDIRGHQVTVLGEIKTGNSPVKQYFYETRCKEARPVKNGCRGIDDKHWNSQCKTSQTYVRALTSENNKLVGWRWIRIDTSCVCALSRKIGRT
notes: as for B1
In the case of B3, the “effect on hES cell survival” value (hES cells [3]) is reported as “potent, dose dependent effects on hES cell survival”.
